The values below come from article PMC4300089, “Structure-Guided Design of Selective Epac1 and Epac2 Agonists” (PLoS Biology, 2015).

The assay addresses T1, Epac2^Δ280,K405Q (Mus musculus, UniProt Q9EQZ6, K423Q).
T1 construct: made in house
T1 sequence (Q9EQZ6 281-993 isoform Q9EQZ6-3 K405Q): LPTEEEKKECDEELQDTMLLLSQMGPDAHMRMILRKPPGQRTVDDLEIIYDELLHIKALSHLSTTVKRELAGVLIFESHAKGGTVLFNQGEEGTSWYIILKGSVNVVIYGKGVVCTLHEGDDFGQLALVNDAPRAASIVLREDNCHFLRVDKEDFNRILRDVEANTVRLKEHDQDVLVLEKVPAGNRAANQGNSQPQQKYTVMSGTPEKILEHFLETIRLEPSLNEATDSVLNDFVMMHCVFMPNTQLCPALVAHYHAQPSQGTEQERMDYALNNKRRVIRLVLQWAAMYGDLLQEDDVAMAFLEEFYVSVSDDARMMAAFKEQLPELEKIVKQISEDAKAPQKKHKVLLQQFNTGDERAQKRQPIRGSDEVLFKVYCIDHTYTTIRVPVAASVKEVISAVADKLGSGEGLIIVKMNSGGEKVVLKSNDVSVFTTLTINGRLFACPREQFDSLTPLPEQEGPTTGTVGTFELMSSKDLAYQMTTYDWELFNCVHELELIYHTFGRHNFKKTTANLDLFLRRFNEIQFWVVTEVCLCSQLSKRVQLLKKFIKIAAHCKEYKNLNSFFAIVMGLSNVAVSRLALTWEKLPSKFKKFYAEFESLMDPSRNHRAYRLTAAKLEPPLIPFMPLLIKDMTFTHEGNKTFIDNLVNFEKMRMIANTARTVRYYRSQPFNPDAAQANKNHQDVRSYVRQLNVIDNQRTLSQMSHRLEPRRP
Description: Epac activation assay, Epac2 K405Q mutant. It counts as biochemical. How it is done: Murine Epac2 was used as all previous structural studies were performed with it.
The activity of Epac was determined by a fluorescence assay. […] The fluorescence intensity of Rap1B•mGDP is approximately twice that of free mGDP, and thus, nucleotide exchange can be observed as a decay in fluorescence upon the addition of excess unlabeled GDP.

Regarding `COC1C2OP(=O)(O)OCC2OC1n1c(Sc2ccc(Cl)cc2)nc2c(N)ncnc21` [D-007, 8-pCPT-2′-O-Me-cAMP, reference compound], the “activation” value is reported as “efficiently activated”.
